Assay results: patent publication US4272437A, “Antibacterial agents, and 4-thio azetidinone intermediates” (priority 1979, dated 1981)
Converted amounts (≈) assume the structure as drawn. Read-outs that look alike come from different tables or passages of the source.

What was measured:
[1] = test system: Pr. mirabilis A-9900; test: MIC, tube dilution, Proteus mirabilis A9900; format: cell-based; conditions: overnight 37° C.; for MIC: Proteus mirabilis, A9900, Proteus mirabilis A9900, read-out: Minimum Inhibitory Concentration (M.I.C.)
Description: (§1) Representative compounds of the present invention were subjected to in vitro antibiotic screening against a variety of microorganisms.

[2] = test system: Ent. cloacae A-9659; test: MIC, tube dilution, Enterobacter cloacae A9659; format: cell-based; conditions: overnight 37° C.; for MIC: Enterobacter cloacae, A9659, Enterobacter cloacae A9659, read-out: Minimum Inhibitory Concentration (M.I.C.)
Description: as §1

[3] = test system: Staph. aureus A-9537; test: MIC, tube dilution, Staphylococcus aureus A9537; format: cell-based; conditions: overnight 37° C., Nutrient Broth; for MIC: Staphylococcus aureus, A9537, Staph. aureus A9537, read-out: Minimum Inhibitory Concentration (M.I.C.); for Minimum Inhibitory Concentration (M.I.C.): Staph. aureus A9537
Description: as §1

[4] = test system: Staph. aureus A-9537 and 50% serum; test: MIC, tube dilution, Staph. aureus A9537 + 50% serum; format: cell-based, Staphylococcus aureus; conditions: overnight 37° C.; for MIC: Staphylococcus aureus, read-out: Minimum Inhibitory Concentration (M.I.C.)
Description: as §1

[5] = test system: Staph. aureus (Pen-Res) A-9606; test: MIC, tube dilution, Staphylococcus aureus A9606 (Pen-Res); format: cell-based; conditions: overnight 37° C.; for MIC: Staphylococcus aureus
Description: as §1

[6] = test system: Staph. aureus (Meth-Res) A-15097; test: MIC, tube dilution, Staphylococcus aureus A15097 (Meth-Res); format: cell-based; conditions: overnight 37° C.; for MIC: Staphylococcus aureus
Description: as §1

[7] = test system: Str. faecalis A-20688; test: MIC, tube dilution, Streptococcus faecalis A20688; format: cell-based; conditions: overnight 37° C.; for MIC: Enterococcus faecalis, A20688, Str. faecalis A20688, read-out: Minimum Inhibitory Concentration (M.I.C.)
Description: as §1

[8] = test system: Pr. vulgaris A-9716; test: MIC, tube dilution, Proteus vulgaris / Proteus mirabilis A9716; format: cell-based, Proteus vulgaris (name changed to Proteus mirabilis); conditions: overnight 37° C.; for MIC: Proteus vulgaris
Description: as §1

[9] = test system: Ps. aeruginosa A-21213; test: MIC, tube dilution, Pseudomonas aeruginosa A21213; format: cell-based; conditions: Pseudomonas aeruginosa A21213, overnight 37° C.; for MIC: read-out: Minimum Inhibitory Concentration (M.I.C.)
Description: as §1

[10] = test system: Providencia stuartii A21205; test: MIC, tube dilution, Providencia stuartii (Pr. rettgeri) A21205; format: cell-based; conditions: for MIC: Providencia stuartii
Description: as §1

[11] = test system: Klebsiella species A20468; test: MIC, tube dilution, Klebsiella species A20468; format: cell-based; conditions: Klebsiella species (K. pneumoniae) A20468, overnight 37° C.; for MIC: read-out: Minimum Inhibitory Concentration (M.I.C.)
Description: as §1

[12] = test system: Ent. cloacae A-9656; test: MIC, tube dilution, Enterobacter cloacae A9656; format: cell-based; conditions: Enterobacter cloacae A9656, overnight 37° C.; for MIC: read-out: Minimum Inhibitory Concentration (M.I.C.)
Description: as §1

[13] = test system: Ps. aeruginosa A-9843A; test: MIC, tube dilution, Pseudomonas aeruginosa A9843A; format: cell-based; conditions: overnight 37° C.; for MIC: Pseudomonas aeruginosa, A9843A, read-out: Minimum Inhibitory Concentration (M.I.C.), Pseudomonas aeruginosa A9843A
Description: as §1

[14] = test system: Pr. morganii A-15153; test: MIC, tube dilution, Proteus morganii A15153; format: cell-based; conditions: overnight 37° C.; for MIC: Morganella morganii, A15153, Proteus morganii A15153, read-out: Minimum Inhibitory Concentration (M.I.C.)
Description: as §1

[15] = test system: Str. pyogenes A-9604; test: MIC, tube dilution, Streptococcus pyogenes A9604; format: cell-based; conditions: overnight 37° C., Nutrient Broth; for MIC: Streptococcus pyogenes, A9604, Str. pyogenes A9604, read-out: Minimum Inhibitory Concentration (M.I.C.)
Description: as §1

[16] = test system: Str. pneumoniae A-9585; test: MIC, tube dilution, Streptococcus pneumoniae A9585; format: cell-based; conditions: overnight 37° C., Nutrient Broth; for MIC: Streptococcus pneumoniae, A9585, Str. pneumoniae A9585, read-out: Minimum Inhibitory Concentration (M.I.C.); for Minimum Inhibitory Concentration (M.I.C.): Str. pneumoniae A9585
Description: as §1

[17] = test system: K. pneumoniae A-15130; test: MIC, tube dilution, Klebsiella pneumoniae A15130; format: cell-based; conditions: overnight 37° C.; for MIC: Klebsiella pneumoniae, A15130, K. pneumoniae A15130, read-out: Minimum Inhibitory Concentration (M.I.C.)
Description: as §1

[18] = test system: E. coli A-20341-1; test: MIC, tube dilution, Escherichia coli A20341-1; format: cell-based; conditions: E. coli A20341-1, overnight 37° C.; for MIC: Escherichia coli, A203411, read-out: Minimum Inhibitory Concentration (M.I.C.)
Description: as §1

[19] = test system: E. coli A-15119; test: MIC, tube dilution, Escherichia coli A15119; format: cell-based; conditions: overnight 37° C.; for MIC: Escherichia coli, A15119, E. coli A15119, read-out: Minimum Inhibitory Concentration (M.I.C.)
Description: as §1

[20] = test system: Ser. marcescens A-20019; test: MIC, tube dilution, Serratia marcescens A20019; format: cell-based; conditions: overnight 37° C.; for MIC: Serratia marcescens, A20019, Serratia marcescens A20019, read-out: Minimum Inhibitory Concentration (M.I.C.)
Description: as §1

[21] = Staph. aureus A9606 (Pen-Res), read-out: Minimum Inhibitory Concentration (M.I.C.)
[22] = A9716, Proteus vulgaris / Proteus mirabilis A9716, read-out: Minimum Inhibitory Concentration (M.I.C.)
[23] = A21205, Providencia stuartii (Pr. rettgeri) A21205, overnight 37° C., read-out: Minimum Inhibitory Concentration (M.I.C.)
[24] = read-out: Minimum Inhibitory Concentration (M.I.C.), Staph. aureus A15097 (Meth-Res)

Structure (SMILES)	MIC [1] [µg/mL]	MIC [2] [µg/mL]	MIC [3] [µg/mL]	MIC [4] [µg/mL]	MIC [5, 21] [µg/mL]	MIC [7] [µg/mL]	MIC [8, 22] [µg/mL]	MIC [9] [µg/mL]	MIC [10, 23] [µg/mL]	MIC [11] [µg/mL]	MIC [12] [µg/mL]	MIC [13] [µg/mL]	MIC [14] [µg/mL]	MIC [15] [µg/mL]	MIC [16] [µg/mL]	MIC [17] [µg/mL]	MIC [18] [µg/mL]	MIC [19] [µg/mL]	MIC [20] [µg/mL]	Minimum Inhibitory Concentration (M.I.C.) [3] [µg/mL]	further results
CSC1C(=O)N2C(C(=O)O)=C(C)SC12 (stereo not drawn) [Example 5, Potassium 6-Thiomethyl-2-methylpenem-3-carboxylate]	63	125	4	> 63	9	125	32	> 125	32	> 125	125	> 125	125	4	0.5	63	125	63	63		MIC ([6]; Staph. aureus A15097 (Meth-Res), read-out: Minimum Inhibitory Concentration (M.I.C.)): 63 µg/mL
O=C(O)C1=C(COc2ccccc2)S[C@@H]2CC(=O)N12 [Example 11, 2-Phenoxymethylpenem-3-carboxylic Acid]																				1	Minimum Inhibitory Concentration (M.I.C.) ([1]; Proteus mirabilis A9900): 16 µg/mL; Minimum Inhibitory Concentration (M.I.C.) ([2]; Enterobacter cloacae A9659): > 125 µg/mL; Minimum Inhibitory Concentration (M.I.C.) [4]: 63 µg/mL; Minimum Inhibitory Concentration (M.I.C.) ([5]; Staph. aureus A9606 (Pen-Res)): .5 µg/mL; Minimum Inhibitory Concentration (M.I.C.) ([6]; Staph. aureus A15097 (Meth-Res)): 1 µg/mL; Minimum Inhibitory Concentration (M.I.C.) ([7]; Str. faecalis A20688): 63 µg/mL; Minimum Inhibitory Concentration (M.I.C.) ([8]; Proteus vulgaris / Proteus mirabilis A9716): 16 µg/mL; Minimum Inhibitory Concentration (M.I.C.) [9]: > 125 µg/mL; Minimum Inhibitory Concentration (M.I.C.) ([10]; Providencia stuartii (Pr. rettgeri) A21205, overnight 37° C.): 63 µg/mL; Minimum Inhibitory Concentration (M.I.C.) [11]: > 125 µg/mL; Minimum Inhibitory Concentration (M.I.C.) [12]: > 125 µg/mL; Minimum Inhibitory Concentration (M.I.C.) ([13]; Pseudomonas aeruginosa A9843A): > 125 µg/mL; Minimum Inhibitory Concentration (M.I.C.) ([14]; Proteus morganii A15153): 16 µg/mL; Minimum Inhibitory Concentration (M.I.C.) ([15]; Str. pyogenes A9604): .5 µg/mL; Minimum Inhibitory Concentration (M.I.C.) [16]: .5 µg/mL; Minimum Inhibitory Concentration (M.I.C.) ([17]; K. pneumoniae A15130): > 125 µg/mL; Minimum Inhibitory Concentration (M.I.C.) [18]: > 125 µg/mL; Minimum Inhibitory Concentration (M.I.C.) ([19]; E. coli A15119): 63 µg/mL; Minimum Inhibitory Concentration (M.I.C.) ([20]; Serratia marcescens A20019): > 125 µg/mL
O=C(O)C1=C(CCCCN2C(=O)c3ccccc3C2=O)SC2CC(=O)N12 (stereo not drawn) [Example 43, 2-(4'-Phthalimido-1'-butyl)penem-3-carboxylic Acid]	32 (≈ 85.9 µM)	> 125	0.03 (≈ 0.0806 µM)	63	16 (≈ 43 µM)	16 (≈ 43 µM)	16 (≈ 43 µM)	> 125	63 (≈ 169 µM)	> 125	125 (≈ 336 µM)	> 125	32 (≈ 85.9 µM)	0.25 (≈ 0.671 µM)	0.016 (≈ 0.043 µM)	> 125	> 125	63 (≈ 169 µM)	16 (≈ 43 µM)		MIC [6, 24]: > 125 µg/mL
CC(=O)OCC1=C(C(=O)[O-])N2C(=O)C[C@H]2S1.[Na+] [Preparation 5, Sodium 2-(Acetoxymethyl)penem-3-carboxylate]	> 125	> 125	125	> 63		> 125		> 125		> 125	> 125	> 125	> 125		> 8	> 125	> 125	> 125	> 125	> 125	MIC ([5]; read-out: Minimum Inhibitory Concentration (M.I.C.), Staph. aureus A9606 (Pen-Res)): > 125 µg/mL; MIC [6, 24]: > 125 µg/mL; MIC ([8]; A9716, read-out: Minimum Inhibitory Concentration (M.I.C.), Proteus vulgaris / Proteus mirabilis A9716): > 125 µg/mL; MIC ([10]; A21205, read-out: Minimum Inhibitory Concentration (M.I.C.)): > 125 µg/mL; Minimum Inhibitory Concentration (M.I.C.) [16]: 16 µg/mL
